In ChEMBL document CHEMBL1201862, “PubChem BioAssay data set” (2004):
Activity calls are given as the source filed them.

Assays:
Type in all cases: functional
[1] = target: T1, Short transient receptor potential channel 4 (Mus musculus, UniProt Q9QUQ5); assay: mouse TRPC4 channel inhibitors, dose response, cell-based, HEK293 TRPC4/mu-opioid, Fluo-4 calcium (AID 434942);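 note: potency of inhibitors blocking the TRPC4 calcium response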
T1 sequence (Q9QUQ5 whole entry): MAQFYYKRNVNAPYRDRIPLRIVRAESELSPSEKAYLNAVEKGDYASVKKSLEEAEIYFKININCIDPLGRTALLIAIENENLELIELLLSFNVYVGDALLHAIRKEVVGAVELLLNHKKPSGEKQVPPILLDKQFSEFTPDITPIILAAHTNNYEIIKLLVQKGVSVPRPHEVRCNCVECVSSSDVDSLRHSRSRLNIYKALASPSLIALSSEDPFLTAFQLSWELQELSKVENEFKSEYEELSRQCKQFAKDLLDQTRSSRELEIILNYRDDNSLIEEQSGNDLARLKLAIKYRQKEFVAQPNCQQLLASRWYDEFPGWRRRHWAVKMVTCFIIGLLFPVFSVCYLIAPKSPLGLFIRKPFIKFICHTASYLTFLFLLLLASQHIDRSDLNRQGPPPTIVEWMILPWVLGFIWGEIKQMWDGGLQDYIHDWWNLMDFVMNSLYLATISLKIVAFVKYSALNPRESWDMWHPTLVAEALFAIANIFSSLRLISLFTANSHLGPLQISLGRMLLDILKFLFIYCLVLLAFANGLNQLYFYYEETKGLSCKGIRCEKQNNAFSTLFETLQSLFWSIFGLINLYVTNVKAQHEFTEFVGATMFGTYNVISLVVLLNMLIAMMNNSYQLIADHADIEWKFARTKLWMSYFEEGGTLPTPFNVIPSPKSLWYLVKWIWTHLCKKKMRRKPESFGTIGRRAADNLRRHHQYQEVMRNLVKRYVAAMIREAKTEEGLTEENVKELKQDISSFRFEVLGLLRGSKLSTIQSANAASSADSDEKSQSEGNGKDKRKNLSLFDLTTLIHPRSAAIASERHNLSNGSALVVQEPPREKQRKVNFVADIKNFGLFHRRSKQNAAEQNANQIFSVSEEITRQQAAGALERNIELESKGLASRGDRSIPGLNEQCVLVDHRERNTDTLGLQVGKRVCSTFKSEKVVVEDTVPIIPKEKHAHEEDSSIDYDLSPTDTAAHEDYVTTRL

[2] = system: BJ; assay: cytotoxicity toward BJ-TERT-LT-ST fibroblasts, dose response, cell-based, RAS-independent, luminescence (AID 1935); settings: Homo sapiens;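 note: BJ fibroblasts immortalized with TERT plus LT and ST oncogenes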
[3] = Luminescence Cell-Based Dose Retest to Confirm Inhibitors of Cancer Stem Cells. [Related pubchem assays (depositor defined):AID2717, AID2721]; settings: Homo sapiens
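Throughout, for AC50: cells exposed to compound for roughly 70 hours or longer before luminescence read.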

Compound | EC50 [1] | EC50 [2] | AC50 [3]
O=[N+]([O-])c1ccc(O)c(C2=NNC(c3ccccc3F)C2)c1 (stereo not drawn) | 15 µM (active) | – | –
Cc1oc2c(c1C(=O)N1CCC(C)CC1)C(=O)c1ccccc1C2=O | – | > 75 µM (not active) | 6.94 µM (active)
